pIC50: −log10 of the molar value.
Biological target: T1, human HSL (Homo sapiens, UniProt Q05469)
T1 construct: generate a full length human HSL ORF with a 3′-His6 tag; made in house; host or cells: High 5 insect cells (baculovirus, pFast-BAC)
T1 sequence (Q05469 1-1076): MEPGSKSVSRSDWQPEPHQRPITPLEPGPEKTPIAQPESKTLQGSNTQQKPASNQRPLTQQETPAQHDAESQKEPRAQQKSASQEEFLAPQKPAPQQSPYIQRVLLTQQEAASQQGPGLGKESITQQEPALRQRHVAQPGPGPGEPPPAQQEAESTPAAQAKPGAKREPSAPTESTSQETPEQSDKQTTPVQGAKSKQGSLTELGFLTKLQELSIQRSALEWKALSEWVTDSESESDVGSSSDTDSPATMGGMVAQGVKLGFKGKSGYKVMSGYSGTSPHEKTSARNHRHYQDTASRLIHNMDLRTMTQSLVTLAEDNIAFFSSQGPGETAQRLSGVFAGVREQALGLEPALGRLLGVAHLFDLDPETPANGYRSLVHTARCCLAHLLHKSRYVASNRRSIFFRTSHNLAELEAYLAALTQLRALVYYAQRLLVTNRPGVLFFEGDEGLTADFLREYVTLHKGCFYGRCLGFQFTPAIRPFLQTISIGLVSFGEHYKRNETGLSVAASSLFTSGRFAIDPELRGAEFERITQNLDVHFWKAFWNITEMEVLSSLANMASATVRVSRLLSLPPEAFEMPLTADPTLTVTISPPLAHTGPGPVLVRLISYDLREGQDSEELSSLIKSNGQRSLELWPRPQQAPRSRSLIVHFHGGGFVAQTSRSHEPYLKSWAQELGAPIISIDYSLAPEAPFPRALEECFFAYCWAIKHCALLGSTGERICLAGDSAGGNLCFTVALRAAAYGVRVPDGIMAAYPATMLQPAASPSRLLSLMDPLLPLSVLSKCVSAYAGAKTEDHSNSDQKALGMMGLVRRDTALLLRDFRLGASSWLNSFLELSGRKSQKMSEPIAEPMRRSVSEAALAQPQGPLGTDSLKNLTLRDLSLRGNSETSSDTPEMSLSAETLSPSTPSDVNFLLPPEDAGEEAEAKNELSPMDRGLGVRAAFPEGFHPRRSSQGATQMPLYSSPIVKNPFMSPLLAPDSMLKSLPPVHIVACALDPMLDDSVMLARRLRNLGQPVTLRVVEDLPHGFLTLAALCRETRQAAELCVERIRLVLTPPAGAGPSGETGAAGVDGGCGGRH
Assay: Human Hormone-Sensitive Lipase (HSL) enzyme inhibition assay (colorimetric, DMPT substrate)
Assay type: biochemical
Conditions: human full length HSL-His6, 2,3-dimercapto-1-propanol tributyrate substrate, 37° C. 20 minutes, absorbance at 405 nm; read-out: HSL hum IC50
In short: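 Full-length human HSL with C-terminal His6, expressed in baculovirus-infected High 5 cells and Ni-NTA purified, was added (15 ug/ml stock) to 1.5 mM DMPT in 100 mM MOPS pH 7.2, 0.2 mg/ml fatty acid-free BSA containing compound. After 20 min at 37 °C, DTNB with SDS/Triton X-100 was added; A405 read after 15 min at RT.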

| SMILES | pIC50 |
| --- | --- |
| O=C1N(c2ccc(OC(F)(F)F)cc2)CC[C@]12CC[C@](O)(Cc1ccccc1)CC2 [Example 63, (5α,8β)-8-Benzyl-8-hydroxy-2-(4-trifluoromethoxy-phenyl)-2-aza-spiro[4.5]decan-1-one] | 6.22 |
| C=CCC[C@]1(O)CC[C@@]2(CCN(c3ccc(OC(F)(F)F)cc3)C2=O)CC1 [Example 65, (5α,8β)-8-But-3-enyl-8-hydroxy-2-(4-trifluoromethoxy-phenyl)-2-aza-spiro[4.5]decan-1-one] | 6.36 |
| CCCC[C@]1(O)CC[C@@]2(CCN(c3ccc(OC(F)(F)F)cc3)C2=O)CC1 [Example 67, (5α,8β)-8-Butyl-8-hydroxy-2-(4-trifluoromethoxy-phenyl)-2-aza-spiro[4.5]decan-1-one] | 4.95 |
| CC(C)[C@]1(O)CC[C@@]2(CCN(c3ccc(OC(F)(F)F)cc3)C2=O)CC1 [Example 69, (5α,8β)-8-Hydroxy-8-isopropyl-2-(4-trifluoromethoxy-phenyl)-2-aza-spiro[4.5]decan-1-one] | 6.25 |
| O=C1N(c2ccc(OC(F)(F)F)cc2)CC[C@]12CC[C@@](O)(C1CC1)CC2 [Example 70, (5α,8α)-8-Cyclopropyl-8-hydroxy-2-(4-trifluoromethoxy-phenyl)-2-aza-spiro[4.5]decan-1-one] | 6.89 |
| COCC#C[C@]1(O)CC[C@@]2(CCN(c3ccc(OC(F)(F)F)cc3)C2=O)CC1 [Example 72, (5α,8β)-8-Hydroxy-8-(3-methoxy-prop-1-ynyl)-2-(4-trifluoromethoxy-phenyl)-2-aza-spiro[4.5]decan-1-one] | 6.15 |
| C[C@]1(O)CC[C@]2(CCN(c3ccc(C4CC4)cc3)C2=O)CC1 [Example 73, (5α,8α)-2-(4-Cyclopropyl-phenyl)-8-hydroxy-8-methyl-2-aza-spiro[4.5]decan-1-one] | 6.82 |
| C[C@]1(O)CC[C@@]2(CCN(c3ccc(C4CC4)cc3)C2=O)CC1 [Example 74, (5α,8β)-2-(4-Cyclopropyl-phenyl)-8-hydroxy-8-methyl-2-aza-spiro[4.5]decan-1-one] | 6.10 |
| CCC[C@]1(O)CC[C@@]2(CCN(c3ccc(C4CC4)cc3)C2=O)CC1 [Example 76, (5α,8β)-2-(4-Cyclopropyl-phenyl)-8-hydroxy-8-propyl-2-aza-spiro[4.5]decan-1-one] | 6.72 |
| C[C@]1(O)CC[C@@]2(CCN(c3ccc(CC(F)(F)F)cc3)C2=O)CC1 [Example 78, (5α,8β)-8-Hydroxy-8-methyl-2-[4-(2,2,2-trifluoro-ethyl)-phenyl]-2-aza-spiro[4.5]decan-1-one] | 6.05 |
| CC[C@]1(O)CC[C@@]2(CCN(c3ccc(CC(F)(F)F)cc3)C2=O)CC1 [Example 80, (5α,8β)-8-Ethyl-8-hydroxy-2-[4-(2,2,2-trifluoro-ethyl)-phenyl]-2-aza-spiro[4.5]decan-1-one] | 6.04 |
| CCC[C@]1(O)CC[C@@]2(CCN(c3ccc(CC(F)(F)F)cc3)C2=O)CC1 [Example 82, (5α,8β)-8-Hydroxy-8-propyl-2-[4-(2,2,2-trifluoro-ethyl)-phenyl]-2-aza-spiro[4.5]decan-1-one] | 6.34 |
| CCCc1ccc(N2CC[C@]3(CC[C@](O)(CC)CC3)C2=O)cc1 [Example 84, (5α,8β)-8-Ethyl-8-hydroxy-2-(4-propyl-phenyl)-2-aza-spiro[4.5]decan-1-one] | 5.37 |
| O=C1N(c2ccc(OCC(F)(F)F)cc2)CC[C@]12CC[C@@H](O)CC2 [Example 85, (5α,8β)-8-Hydroxy-2-[4-(2,2,2-trifluoro-ethoxy)-phenyl]-2-aza-spiro[4.5]decan-1-one] | 5.64 |
| C[C@]1(O)CC[C@]2(CCN(c3ccc(OCC(F)(F)F)cc3)C2=O)CC1 [Example 86, (5α,8α)-8-Hydroxy-8-methyl-2-[4-(2,2,2-trifluoro-ethoxy)-phenyl]-2-aza-spiro[4.5]decan-1-one] | 6.89 |
| C[C@]1(O)CC[C@@]2(CCN(c3ccc(OCC(F)(F)F)cc3)C2=O)CC1 [Example 87, (5α,8β)-8-Hydroxy-8-methyl-2-[4-(2,2,2-trifluoro-ethoxy)-phenyl]-2-aza-spiro[4.5]decan-1-one] | 5.42 |
| CC[C@]1(O)CC[C@@]2(CCN(c3ccc(OCC(F)(F)F)cc3)C2=O)CC1 [Example 89, (5α,8β)-8-Ethyl-8-hydroxy-2-[4-(2,2,2-trifluoro-ethoxy)-phenyl]-2-aza-spiro[4.5]decan-1-one] | 5.50 |
| COCCC[C@]1(O)CC[C@@]2(CCN(c3ccc(OC(F)(F)F)cc3)C2=O)CC1 [Example 91, (5α,8β)-8-Hydroxy-8-(3-methoxy-propyl)-2-(4-trifluoromethoxy-phenyl)-2-aza-spiro[4.5]decan-1-one] | 6.05 |

These reach a higher pIC50. Values come first.

| pIC50 | SMILES |
| --- | --- |
| 7.15 | CCCc1ccc(N2CC[C@]3(CC[C@@](O)(CC)CC3)C2=O)cc1 [Example 83, (5α,8α)-8-Ethyl-8-hydroxy-2-(4-propyl-phenyl)-2-aza-spiro[4.5]decan-1-one] |
| 7.30 | C[C@]1(O)CC[C@]2(CCN(c3ccc(CC(F)(F)F)cc3)C2=O)CC1 [Example 77, (5α,8α)-8-Hydroxy-8-methyl-2-[4-(2,2,2-trifluoro-ethyl)-phenyl]-2-aza-spiro[4.5]decan-1-one] |
| 7.38 | CC[C@]1(O)CC[C@]2(CCN(c3ccc(OCC(F)(F)F)cc3)C2=O)CC1 [Example 88, (5α,8α)-8-Ethyl-8-hydroxy-2-[4-(2,2,2-trifluoro-ethoxy)-phenyl]-2-aza-spiro[4.5]decan-1-one] |
| 7.40 | COCC#C[C@]1(O)CC[C@]2(CCN(c3ccc(OC(F)(F)F)cc3)C2=O)CC1 [Example 71, (5α,8α)-8-Hydroxy-8-(3-methoxy-prop-1-ynyl)-2-(4-trifluoromethoxy-phenyl)-2-aza-spiro[4.5]decan-1-one] |
| 7.52 | C=CCC[C@]1(O)CC[C@]2(CCN(c3ccc(OC(F)(F)F)cc3)C2=O)CC1 [Example 64, (5α,8α)-8-But-3-enyl-8-hydroxy-2-(4-trifluoromethoxy-phenyl)-2-aza-spiro[4.5]decan-1-one] |
| 7.52 | CCCC[C@]1(O)CC[C@]2(CCN(c3ccc(OC(F)(F)F)cc3)C2=O)CC1 [Example 66, (5α,8α)-8-Butyl-8-hydroxy-2-(4-trifluoromethoxy-phenyl)-2-aza-spiro[4.5]decan-1-one] |
| 7.52 | CC(C)[C@]1(O)CC[C@]2(CCN(c3ccc(OC(F)(F)F)cc3)C2=O)CC1 [Example 68, (5α,8α)-8-Hydroxy-8-isopropyl-2-(4-trifluoromethoxy-phenyl)-2-aza-spiro[4.5]decan-1-one] |
| 7.52 | CCC[C@]1(O)CC[C@]2(CCN(c3ccc(C4CC4)cc3)C2=O)CC1 [Example 75, (5α,8α)-2-(4-Cyclopropyl-phenyl)-8-hydroxy-8-propyl-2-aza-spiro[4.5]decan-1-one] |
| 7.52 | CC[C@]1(O)CC[C@]2(CCN(c3ccc(CC(F)(F)F)cc3)C2=O)CC1 [Example 79, (5α,8α)-8-Ethyl-8-hydroxy-2-[4-(2,2,2-trifluoro-ethyl)-phenyl]-2-aza-spiro[4.5]decan-1-one] |
| 7.52 | COCC#C[C@]1(O)CC[C@]2(CCN(c3ccc(CC(F)(F)F)cc3)C2=O)CC1 [Example 92, (5α,8α)-8-Hydroxy-8-(3-methoxy-prop-1-ynyl)-2-[4-(2,2,2-trifluoro-ethyl)-phenyl]-2-aza-spiro[4.5]decan-1-one] |
| 7.64 | COCCC[C@]1(O)CC[C@]2(CCN(c3ccc(OC(F)(F)F)cc3)C2=O)CC1 [Example 90, (5α,8α)-8-Hydroxy-8-(3-methoxy-propyl)-2-(4-trifluoromethoxy-phenyl)-2-aza-spiro[4.5]decan-1-one] |
| 7.70 | CCC[C@]1(O)CC[C@]2(CCN(c3ccc(CC(F)(F)F)cc3)C2=O)CC1 [Example 81, (5α,8α)-8-Hydroxy-8-propyl-2-[4-(2,2,2-trifluoro-ethyl)-phenyl]-2-aza-spiro[4.5]decan-1-one] |
| 7.70 | COCCC[C@]1(O)CC[C@]2(CCN(c3ccc(CC(F)(F)F)cc3)C2=O)CC1 [Example 93, (5α,8α)-8-Hydroxy-8-(3-methoxy-propyl)-2-[4-(2,2,2-trifluoro-ethyl)-phenyl]-2-aza-spiro[4.5]decan-1-one] |

— US8440710B2, “HSL inhibitors useful in the treatment of diabetes” (Hoffmann-La Roche Inc., priority 2009, dated 2013)
